# According to US20120034613A1, “Apparatus and Method for Testing Relationships Between Gene Expression and Physical Appearance of Skin” (NSE Products, Inc., priority 2010, published 2012):
# Test system: human equivalent skin tissue
# Assay: RT-rt-PCR (TaqMan Low Density Arrays) gene expression confirmation, agent-exposed vs unexposed skin model
# Assay type: cell-based
# Settings: Salicin 0.5% vs. Untreated Control, HPRT as Endogenous Control Gene
# Method: Preferably this is done with the same skin model as used with the microarray technology for measuring global gene expression. The qualities of the agent (concentration, solvent, etc.) should normally be the same.
# In some embodiments, the agent tested is salicin at a concentration of 0.5% salicin, available from Symrise Corporation (Teterborro, N.J.). The salicin is dissolved in water. Affymetrix microarray testing provides results for thousands of genes, whereas RT-rt-PCR testing provides results for a smaller gene group. For RT-rt-PCR testing, about 90 genes are tested at a time for this particular experimental design (other designs may test as many as 390 at a time on the equipment identified below). The experimenter may choose this number based on cost.
# To implement this step, RT-rt-PCR is conducted for specific genes known to be involved in skin aging. In one embodiment Custom TaqMan® Low Density Arrays (TLDA's) were configured using Applied Biosystems validated gene expression assays. The validated gene expression assays contain a TaqMan® fluorescent probe and primers for each target gene. Genes for the TLDA cards are selected based on either, published literature describing the genes functional role in skin cell biology and aging and/or the previous Affymetrix testing results. (See Tables 1-4). Five endogenous control genes may be included on each card. Thus, when a particular gene assembly is tested with RT-rt-PCR, the data resulting may cover more than just the set of genes as in Table 3.
# (High-Capacity cDNA Reverse Transcription Kits for 200 and 1000 Reactions Protocol (October, 2006)). cDNA was mixed with TaqMan® Universal Master Mix without UNG and loaded into the wells of the TLDA cards. The cards are run using an Applied Biosystems 7900HT instrument according to the manufacturer's cycling parameters.
# As with the microassay, the analysis is done with a skin model exposed to the agent and a reference that is not exposed to the agent. The skin model not exposed to the agent may be used for calibration. The skin model may be human equivalent skin tissue. The target genes get normalized to a stable endogenous control (genes that are invariants in all cell types such as […]). This normalization is to account for variations that may occur during sample loading. The unexposed information gathered is used for comparison against the tested sample.
# The formula for ΔCT (delta cycle threshold) is CT (target) minus CT (endogenous control gene). (ΔCT=CT (target)−CT (endogenous control gene)). The test system, data processing system 710 stores the data then uses process application modules 720 to take the CT values for both the exposed and unexposed and get a ΔΔCT value, which is reported for that specific gene in a log ratio scale. […] In one embodiment, data analysis is carried out according to the RQ analysis method using RQ Manager and StatMiner (v3.1) software programs.
# At least part of the comparing of the data is performed by a computer system, such as the data processing system 710 (see FIG. 7) for performing data access and storage and various computations specified by software (process application modules 720) corresponding to the functions occurring at various described steps of this method. Additional process application modules 722 perform a parametric t-test with a Benjamini and Hochberg false discovery rate correction is performed to identify genes with a statistically significant p value equal to or less than 0.05. The up or down regulation of the gene is also identifiable from the RT-rt-PCR analysis. Results of the change in threshold cycle (ΔCT) values between the exposed and unexposed human skin tissues are calculated by a software program. The selected genes will have a cycle threshold of biological relevance. For these experiments, the selected genes have a cycle threshold of less than about <35, which is a value of biological relevance. […]
compound,measurement,setting,value
"OCc1ccccc1O[C@@H]1O[C@H](CO)[C@@H](O)[C@H](O)[C@H]1O [Salicin, 2-(Hydroxymethyl)phenyl β-D-glucospyranoside]",CAT gene expression Direction,,down
same,CAT gene expression Log10RG,,−0.4768
same,COL4A1 gene expression Direction,,up
same,COL4A1 gene expression Log10RG,,0.2086
same,DSC3 gene expression Direction,,down
same,DSC3 gene expression Log10RG,,−0.2938
same,DSP gene expression Direction,,down
same,DSP gene expression Log10RG,,−0.2223
same,FN1 gene expression Direction,,up
same,FN1 gene expression Log10RG,,0.2411
same,FOXO1 gene expression Direction,,up
same,FOXO1 gene expression Log10RG,,0.2383
same,IL6 gene expression Direction,,up
same,IL6 gene expression Log10RG,,0.9322
same,ITGB1 gene expression Direction,,up
same,ITGB1 gene expression Log10RG,,9.36E−02
same,ITGB4 gene expression Direction,,down
same,ITGB4 gene expression Log10RG,,−0.8283
same,KRT1 gene expression Direction,,down
same,KRT1 gene expression Log10RG,,−1.112
same,KRT5 gene expression Direction,,down
same,KRT5 gene expression Log10RG,,−0.445
same,LOR gene expression Direction,,down
same,LOR gene expression Log10RG,,−1.921
same,PRKCA gene expression Direction,,up
same,PRKCA gene expression Log10RG,,0.2749
same,S100A8 gene expression Direction,,down
same,S100A8 gene expression Log10RG,,−0.6307
same,S100A9 gene expression Direction,,down
same,S100A9 gene expression Log10RG,,−0.6513
same,SDC1 gene expression Direction,,down
same,SDC1 gene expression Log10RG,,−0.3961
same,SMAD7 gene expression Direction,,up
same,SMAD7 gene expression Log10RG,,0.2325
same,SOD2 gene expression Direction,,up
same,SOD2 gene expression Log10RG,,0.3025
same,TNC gene expression Direction,,up
same,TNC gene expression Log10RG,,0.1429
same,ITGB1 gene expression Log10RG,listed as salicin,0.09356
